The source of these data is US6655081B1, “Mushrooms” (DSM N.V., priority 1999, dated 2003).

The test system of one assay is Agaricus bisporus. In kind it is in vivo. The settings on record: after 3 flushes. The protocol:
This example describes the effect of natamycin on the yield of mushrooms. Tubs having an area of 0.26 m^2 were filled with commercially prepared pasteurized mushroom substrate inoculated with spawn (seed) of the commercial button mushroom Agaricus bisporus. Following colonization by the mushroom fungus, the substrate was covered by a layer of peat moss, mixed with limestone (the casing layer) and further incubated under well known standard conditions until mycelial strands were visible on the surface. Fruiting bodies were initiated by manipulating the external environment using methods well known in the industry. 9 tubs were treated five days prior to the first flush by applying an aqueous solution containing 10 ppm of natamycin, as a control 9 tubs were treated the same way however without natamycin. The aqueous solution was applied at a rate of 1.84 liter per square meter and the mushroom beds were allowed to continue growing.

The test system of the next assay is Dactylium dendroides. Nature of the assay: Mould growth on Potato Dextrose Agar plates containing natamycin. In kind it is cell-based. The settings on record: 5 days at 25° C. How it is done: (§1) Each of these organisms were field isolates.
(§2) Potato Dextrose Agar plates containing 0, 10 and 20 ppm of natamycin and mould suspensions were prepared using well known methods.
(§3) The freshly prepared suspensions were dilluted to final concentrations of 10^4 Colony Forming Units/ml.
(§4) 10 μl of each mould suspensions was inoculated in a spot on the agar plates (in duplo). The plates were incubated for 5 days at 25° C.
(§5) After 5 days of incubation on the control plates containing no natamycin, clear colonies were formed.

The next assay has as its system Mycogone pernicosa. Described as above. The settings on record: 5 days at 25° C. In kind it is cell-based. How it is done:
as §1, §2, §3, §4, §5

The test system of a further assay is Trichoderma harzianum. The description is as above. The settings on record: 5 days at 25° C. In kind it is cell-based. The protocol:
as §1, §2, §3, §4, §5

The test system of another assay is Verticillium fungicola. The assay is described as above. In kind it is cell-based. The settings on record: 5 days at 25° C. The protocol: as §1, §2, §3, §4, §5
A further assay has as its system most fungi. The settings on record: cited from earlier work.
For assay [1], the system named is mycelium of most mushroom species, e.g. A. bisporus. The settings on record: cited from earlier work.

`C[C@@H]1C/C=C/C=C/C=C/C=C/[C@H](O[C@@H]2O[C@H](C)[C@@H](O)[C@H](N)[C@@H]2O)C[C@@H]2O[C@](O)(C[C@@H](O)C[C@H]3O[C@@H]3/C=C/C(=O)O1)C[C@H](O)[C@H]2C(=O)O` [natamycin] registered an average yield in the assay with Agaricus bisporus (10 ppm natamycin aqueous solution, 1.84 liter per square meter, five days prior to first flush, 9 tubs) of 3.94 pounds per square feet. For the same compound, in the assay on Agaricus bisporus (10 ppm natamycin), the “yield compared to the untreated control” value is recorded as “statistically significant yield increase”. Besides, the “growth on agar plate” value with Dactylium dendroides (10 ppm natamycin), in the assay with Dactylium dendroides (20 ppm natamycin), in the assay on Mycogone pernicosa (10 ppm natamycin), with Mycogone pernicosa (20 ppm natamycin), in the assay on Trichoderma harzianum (10 ppm natamycin) and in the assay on Trichoderma harzianum (20 ppm natamycin) was “no growth” in each case. In addition, the “growth on agar plate” value in the assay with Verticillium fungicola (10 ppm natamycin) is reported as “only some slight growth”; in the assay with Verticillium fungicola (20 ppm natamycin), “no growth”. Moreover, the “MIC (Minimal Inhibitory Concentration)” value in the assay on most fungi is recorded as “less than 20 ppm”. Moreover, the “inhibition of mushroom mycelium” value in assay [1] is “inhibited”.
